Values quoted from earlier work, collected in US20210368800A1, “Quickly, easily, and economically creating and maintaining a low bio-load on surfaces that may be large and/or of complex contour and finish” (priority 2020, published 2021).

Columns and labels:
norovirus = conditions: at 50 ppm; electrolytically generated hypochlorous acid

SMILES: OCl [hypochlorous acid, Hypochlorous Acid]
- time to kill norovirus (norovirus): less than one
- effective in eliminating coronavirus 0C43 (coronavirus 0C43): more than 99.999%
